Measured values published in US20250345492A1, “AN ANTIBACTERIAL POLYPEPTIDE COMPOUND, A MEDICAL DEVICE, HYDROGEL AND USE THEREOF” (priority 2020, published 2025).
Ends that are not written are not given here.

Assays:
C. albicans ATCC14053 = conditions: fungus
Summary of the method: (§1)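 Log-phase cells grown in MH (bacteria) or SD (fungi) medium at 37 °C were plated at 1×10^5 CFU/ml with 2-fold serially diluted peptide (1-256 μM solutions added at twice final concentration). After 12 h at 37 °C, MIC was taken as the first clear well by eye, in triplicate.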

C. parapsilosis ATCC2001 = conditions: fungus
Summary of the method: as §1

E. coli (ATCC 25922) [1] = conditions: standard strain
Summary of the method: as §1

[2] = tested on: E-4b, clinical isolated drug-resistant strain ESBL; conditions: strain E-4b (ESBL)
Summary of the method: as §1

C. krusei ATCC6258 = conditions: fungus
Summary of the method: as §1

[3] = tested on: S-4a, clinical isolated drug-resistant strain MRSA; conditions: strain S-4a (MRSA)
Summary of the method: as §1

[4] = tested on: S-2a, clinical isolated drug-resistant strain MRSA; conditions: strain S-2a (MRSA)
Summary of the method: as §1

[5] = tested on: Bacillus subtilis (ATCC 23857); conditions: standard strain
Summary of the method: as §1

C. glabrata ATCC22019 = conditions: fungus
Summary of the method: as §1

[6] = tested on: P-3c, clinical isolated drug-resistant strain PA; conditions: strain P-3c (PA)
Summary of the method: as §1

[7] = tested on: Staphylococcus epidermidis (ATCC 12228); conditions: standard strain
Summary of the method: as §1

[8] = tested on: P-2c, clinical isolated drug-resistant strain PA; conditions: strain P-2c (PA)
Summary of the method: as §1

[9] = tested on: S-3a, clinical isolated drug-resistant strain MRSA; conditions: strain S-3a (MRSA)
Summary of the method: as §1

[10] = tested on: P-4c, clinical isolated drug-resistant strain PA; conditions: strain P-4c (PA)
Summary of the method: as §1

[11] = tested on: E-3b, clinical isolated drug-resistant strain ESBL; conditions: strain E-3b (ESBL)
Summary of the method: as §1

[12] = tested on: S-1a, clinical isolated drug-resistant strain MRSA; conditions: strain S-1a (MRSA)
Summary of the method: as §1

[13] = tested on: E-5b, clinical isolated drug-resistant strain ESBL; conditions: strain E-5b (ESBL)
Summary of the method: as §1

[14] = tested on: E-2b, clinical isolated drug-resistant strain ESBL; conditions: strain E-2b (ESBL)
Summary of the method: as §1

[15] = tested on: Cronobacter sakazakii (ATCC 29544); conditions: standard strain
Summary of the method: as §1

[16] = tested on: P-5c, clinical isolated drug-resistant strain PA; conditions: strain P-5c (PA)
Summary of the method: as §1

[17] = tested on: E-1b, clinical isolated drug-resistant strain ESBL; conditions: strain E-1b (ESBL)
Summary of the method: as §1

C. tropicalis ATCC750 = conditions: fungus
Summary of the method: as §1

[18] = tested on: Pseudomonas aeruginosa (ATCC 27853); conditions: standard strain
Summary of the method: as §1

[19] = tested on: P-1c, clinical isolated drug-resistant strain PA; conditions: strain P-1c (PA)
Summary of the method: as §1

[20] = tested on: Staphylococcus aureus (ATCC 29213); conditions: standard strain
Summary of the method: as §1

E. coli (ATCC 25922) [21] = experiment: Outer membrane permeability, NPN probe; format: cell-based; conditions: 1×MIC to 8×MIC, NPN fluorescence, 15 min
Protocol: The destruction of bacterial cell OM was determined by using hydrophobic fluorescent probe NPN (1-N-phenylnaphthylamine) to determine the effect of the compounds on the OM permeability of E. coli (ATCC 25922).
Taking compounds 2, 8, 9, 13 and 15 of the present invention as examples, the OM permeability of E. coli with the presence of the antibacterial polypeptide compounds was analyzed. E. coli cells were washed twice with PBS solution and resuspended in 5 mM HEPES (pH 7.2), and then diluted to a concentration of […]. […] The excitation wavelength and emission wavelength were set to 350 nm and 420 nm, separately, and the cells were detected once every minute using a multifunctional ELISA reader within a 15-min period of time.

Substance	MIC C. albicans ATCC14053 (C. albicans ATCC14053) [µM]	MIC C. parapsilosis ATCC2001 (C. parapsilosis ATCC2001) [µM]	MIC C. coli ATCC25922 (E. coli (ATCC 25922) [1]) [µM]	MIC [2] [µM]	MIC C. krusei ATCC6258 (C. krusei ATCC6258) [µM]	MIC [3] [µM]	MIC [4] [µM]	MIC B. subtilis ATCC23857 [5] [µM]	MIC C. glabrata ATCC22019 (C. glabrata ATCC22019) [µM]	MIC [6] [µM]	MIC S. epidermidis ATCC12228 [7] [µM]	MIC [8] [µM]	MIC [9] [µM]	MIC [10] [µM]	MIC [11] [µM]	MIC [12] [µM]	MIC [13] [µM]	MIC [14] [µM]	MIC C. sakazakii ATCC29544 [15] [µM]	MIC [16] [µM]	also measured
Pro-Phe-Lys-Leu-Ser-Leu-His-Leu-NH2 (PFKLSLHL-NH2) [Compound J-1, reference compound]	64	32	32	32	32	128	128	32	64	32	64	32	128	32	32	128	32	32	64	32	MIC [17]: 32 µM; MIC C. tropicalis ATCC750 (C. tropicalis ATCC750): 16 µM; MIC P. aerugmosa ATCC27853 [18]: 32 µM; MIC [19]: 32 µM; MIC S. aureus ATCC29213 [20]: 128 µM; OM permeability of E. coli (E. coli (ATCC 25922) [21]): destroy the integrity of the E. coli OM in a dose-dependent manner
Pro-Trp-Orn-Leu-Orn-Leu-His-Leu-NH2 (PWXLXLHL; HELM PEPTIDE1{P.W.[Orn].L.[Orn].L.H.L.[am]}$$$$V2.0; N-terminus assumed; SMILES CC(C)C[C@H](NC(=O)[C@H](Cc1c[nH]cn1)NC(=O)[C@H](CC(C)C)NC(=O)[C@H](CCCN)NC(=O)[C@H](CC(C)C)NC(=O)[C@H](CCCN)NC(=O)[C@H](Cc1c[nH]c2ccccc12)NC(=O)[C@@H]1CCCN1)C(N)=O) [Compound 9]	32	16	8	8	64	64	64	16	16	8	32	8	64	8	8	64	8	8	16	8	MIC [17]: 8 µM; MIC C. tropicalis ATCC750 (C. tropicalis ATCC750): 16 µM; MIC P. aerugmosa ATCC27853 [18]: 8 µM; MIC [19]: 8 µM; MIC S. aureus ATCC29213 [20]: 64 µM; OM permeability of E. coli (E. coli (ATCC 25922) [21]): destroy the integrity of the E. coli OM in a dose-dependent manner
